Laboratory results published in patent US11999727B2 (Tango Therapeutics, Inc., priority 2020, dated 2024).

Tests used:
PRMT5 [1] = biological target: T1, PRMT5 (Homo sapiens, UniProt O14744); test: PRMT5 biochemical IC50 assay with no cofactor; conditions: PRMT5, no cofactor
T1 construct: purchased Viva (custom protein)
Excerpt: Table 1 indicates IC50 values (μM) against PRMT5 for exemplary compounds in the presence of SAM as cofactor, with no cofactor, and with MTA as cofactor, respectively (columns 4-6). […] Ki values can be calculated from the IC50 values as described in the Examples section. As detailed in the Examples section, for the assay performed in the presence of SAM, IC50=Ki×1.5 (Ki=IC50/1.5).

PRMT5 [2] = biological target: T1, PRMT5; test: PRMT5 biochemical IC50 assay with MTA as cofactor; conditions: PRMT5, MTA as cofactor; read-out: MTA IC50
[3] = system: HAP1 MTAP-deleted cell line; test: Viability assay, MTAP-deleted cell line; format: cell-based; conditions: read-out: HAP1 MTAP deleted viability
Excerpt: Table 1 additionally indicates IC50 values in a viability assay for the MTAP-deleted cell line (column 10), indicating the effect of treatment with compound on cell survival.

[4] = system: HAP1 MTAP-intact cell line; test: SDMA in-cell western assay, HAP1 MTAP-intact; format: cell-based; conditions: Homo sapiens, HAP1, SDMA in-cell western, HAP1 MTAP-intact; read-out: MTAP HAP1 intact IC50
Procedure, shortened: (§1)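 Isogenic HAP1 pair: the MTAP-intact line expresses endogenous MTAP, and the deleted line is MTAP-null. Symmetric dimethylarginine was detected by in-cell western and IC50 values derived for each line.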

[5] = system: HAP1 MTAP-deleted cell line; test: SDMA in-cell western assay, HAP1 MTAP-deleted; format: cell-based; conditions: for IC50: HAP1 MTAP-deleted; for MTAP intact/deleted ratio: IC50 ratio HAP1 MTAP-intact / HAP1 MTAP-deleted
Procedure, shortened: as §1

PRMT5 [6] = biological target: T1, PRMT5; test: PRMT5 biochemical IC50 assay with SAM as cofactor; conditions: PRMT5, SAM as cofactor; read-out: SAM IC50
[7] = Homo sapiens, HAP1, viability assay, HAP1 MTAP-deleted
[8] = Homo sapiens, HAP1, SDMA in-cell western, read-out: HAP1 MTAP deleted IC50
[9] = read-out: No Cofactor/ rel IC50
[10] = Homo sapiens, HAP1, viability, HAP1 MTAP-deleted cell line
[11] = Homo sapiens, HAP1, SDMA in-cell western, read-out: HAP 1 MTAP deleted IC50
[12] = Homo sapiens, HAP1, viability assay, MTAP-deleted cell line

T1 sequence (O14744 whole entry): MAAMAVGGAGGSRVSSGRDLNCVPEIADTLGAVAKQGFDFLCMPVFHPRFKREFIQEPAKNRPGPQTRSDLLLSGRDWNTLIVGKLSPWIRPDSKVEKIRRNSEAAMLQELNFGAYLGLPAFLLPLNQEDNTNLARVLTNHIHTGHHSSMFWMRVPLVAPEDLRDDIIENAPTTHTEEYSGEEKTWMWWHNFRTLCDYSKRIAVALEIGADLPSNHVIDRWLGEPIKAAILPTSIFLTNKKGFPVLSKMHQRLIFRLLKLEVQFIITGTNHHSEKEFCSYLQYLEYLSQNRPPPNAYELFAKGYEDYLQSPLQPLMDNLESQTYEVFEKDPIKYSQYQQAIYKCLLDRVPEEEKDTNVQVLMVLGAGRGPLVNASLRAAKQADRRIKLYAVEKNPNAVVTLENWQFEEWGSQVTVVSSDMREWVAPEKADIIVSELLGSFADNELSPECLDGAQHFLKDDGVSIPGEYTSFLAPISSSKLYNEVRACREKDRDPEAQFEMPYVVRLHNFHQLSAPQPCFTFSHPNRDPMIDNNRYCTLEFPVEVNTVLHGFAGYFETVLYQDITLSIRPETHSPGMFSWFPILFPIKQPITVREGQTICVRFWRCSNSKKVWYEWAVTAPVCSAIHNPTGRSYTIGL
T1 sequence (Q9BQA1 whole entry partner): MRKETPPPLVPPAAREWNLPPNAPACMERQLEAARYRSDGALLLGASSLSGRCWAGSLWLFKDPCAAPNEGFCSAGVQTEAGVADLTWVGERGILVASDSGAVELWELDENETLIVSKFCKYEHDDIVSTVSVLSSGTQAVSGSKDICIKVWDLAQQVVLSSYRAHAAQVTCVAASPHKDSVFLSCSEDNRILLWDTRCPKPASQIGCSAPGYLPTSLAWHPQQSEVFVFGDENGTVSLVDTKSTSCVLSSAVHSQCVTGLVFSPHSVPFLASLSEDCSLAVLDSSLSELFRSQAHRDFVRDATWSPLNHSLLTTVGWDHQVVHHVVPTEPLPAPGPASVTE

SMILES | IC50 (PRMT5 [1]; read-out: No Cofactor/rel IC50) | IC50 (PRMT5 [2]) | IC50 [4] | IC50 [5, 8] | IC50 (PRMT5 [6]) | IC50 (PRMT5 [1]; [9]) | IC50 ([5]; SDMA in-cell western, read-out: HAP 1 MTAP deleted IC50) | IC50 [5, 11] | IC50 [3, 7] | MTAP intact/deleted ratio ([5]; SDMA in-cell western) | IC50 ([3]; viability assay, MTAP-deleted cell line) | IC50 [3, 10] | IC50 [3, 12]
CCc1cc(NC(=O)C(=O)N2C[C@@H](C)CC[C@@H]2c2ccc3[nH]c(=O)ccc3c2)cnc1N (single isomer, unassigned) [Compound 825] | < 50 nM | < 50 nM | 100 to 1000 nM | < 100 nM | 50 to 500 nM | – | – | – | < 1000 nM | A (an IC50 ratio greater than or equal to 10 fold) | – | – | –
NC(=O)c1cncc(NC(=O)C(=O)N2CCCCC2C2CCCCC2)c1 (single isomer, unassigned) [Compound 108, 5-(2-(2-cyclohexylpiperidin-1-yl)-2-oxoacetamido)nicotinamide] | – | > 500 nM | > 1000 nM | – | > 500 nM | > 500 nM | > 1000 nM | – | – | C (an IC50 ratio of less than 3 fold) | > 10000 nM | – | –
COc1ncc(NC(=O)C(=O)N2C[C@@H](C)CC[C@@H]2c2cccc(OCCN(C)C)c2)cc1C(N)=O [Compound 1352, 5-(2-((2R,5S)-2-(3-(2-(dimethylamino)ethoxy)phenyl)-5-methylpiperidin-1-yl)-2-oxoacetamido)-2-methoxynicotinamide] | – | < 50 nM | > 1000 nM | – | < 50 nM | < 50 nM | – | < 100 nM | – | – | – | < 1000 nM | –
CCc1cc(NC(=O)C(=O)N2C[C@@H](C)CC[C@@H]2c2ccc3sc(C4CC5(C4)CN(C)C5)nc3c2)cnc1N [Compound 1283, N-(6-amino-5-ethylpyridin-3-yl)-2-((2R,5S)-5-methyl-2-(2-(2-methyl-2-azaspiro[3.3]heptan-6-yl)benzo[d]thiazol-5-yl)piperidin-1-yl)-2-oxoacetamide] | – | < 50 nM | < 100 nM | – | < 50 nM | < 50 nM | – | < 100 nM | – | A (an IC50 ratio greater than or equal to 10 fold) | – | < 1000 nM | –
Cc1cncc(NC(=O)C(=O)N2CCCCC2c2ccccc2)c1N (centres unmarked) [Compound 184, N-(4-amino-5-methylpyridin-3-yl)-2-oxo-2-(2-phenylpiperidin-1-yl)acetamide] | > 500 nM | 50 to 500 nM | > 1000 nM | > 1000 nM | > 500 nM | – | – | – | – | C (an IC50 ratio of less than 3 fold) | – | – | > 10000 nM
CNc1cccc([C@@H]2CC[C@@H](C)CN2C(=O)C(=O)Nc2cnc(N)c(C)c2)c1 (single isomer, unassigned) [Compound 449] | 50 to 500 nM | < 50 nM | 100 to 1000 nM | < 100 nM | 50 to 500 nM | – | – | – | – | A (an IC50 ratio greater than or equal to 10 fold) | – | – | < 1000 nM

More lines, main results first:

IC50 (PRMT5 [1]; read-out: No Cofactor/rel IC50) | IC50 (PRMT5 [2]) | IC50 [4] | IC50 [5, 8] | IC50 (PRMT5 [6]) | IC50 (PRMT5 [1]; [9]) | IC50 ([5]; SDMA in-cell western, read-out: HAP 1 MTAP deleted IC50) | IC50 [5, 11] | SMILES | IC50 [3, 7] | MTAP intact/deleted ratio ([5]; SDMA in-cell western) | IC50 ([3]; viability assay, MTAP-deleted cell line) | IC50 [3, 10] | IC50 [3, 12]
> 500 nM | > 500 nM | > 1000 nM | > 1000 nM | > 500 nM | – | – | – | CNC(=O)c1ccc([C@H]2CC[C@H](C)CN2C(=O)C(=O)Nc2cncc(C(N)=O)c2)s1 (single isomer, unassigned) [Compound 839] | > 10000 nM | B (an IC50 ratio greater than or equal to 3 fold but lower than 10 fold) | – | – | –
< 50 nM | < 50 nM | 100 to 1000 nM | – | 50 to 500 nM | – | – | < 100 nM | COc1ncc(NC(=O)C(=O)N2C[C@@H](C)CC[C@@H]2c2cc3cn[nH]c3s2)cc1C(N)=O (single isomer, unassigned) [Compound 968, 2-methoxy-5-(2-(5-methyl-2-(1H-thieno[2,3-c]pyrazol-5-yl)piperidin-1-yl)-2-oxoacetamido)nicotinamide] | – | A (an IC50 ratio greater than or equal to 10 fold) | – | – | < 1000 nM
– | 50 to 500 nM | > 1000 nM | – | 50 to 500 nM | 50 to 500 nM | – | > 1000 nM | Cc1cncc(NC(=O)C(=O)N2C[C@H](C)CC[C@H]2c2ccc(C)c(C)c2)c1 (single isomer, unassigned) [Compound 21] | – | B (an IC50 ratio greater than or equal to 3 fold but lower than 10 fold) | – | – | > 10000 nM
